Measurements from patent US20020142982A1, “Method for regulating angiogenesis” (priority 1999, published 2002).

Columns and labels:
Format in all cases: cell-based, human
[1] = system: HUVEC; assay: Adherens junction assembly in HUVEC, immunofluorescence of VE-cadherin and catenins; conditions: for VE-cadherin, α-, β- and γ-catenin localization at cell-cell junctions: 500 nM, 1 hour
Protocol: To investigate whether SPP regulates the formation of adherens junction in endothelial cells, HUVEC were plated at a density of 2×10^4 cells/em^2 for 2 days, starved in lipid-depleted medium and treated without (cont) or with SPP (500 nM for 1 hours). For these experiments, after treatment cells were washed with ice-cold PBS, fixed with 4% formaldehyde at room temperature or methanol at −20° C. for 15 minutes. In the case of formaldehyde fixation, cells were permeabilized with 0.2% TX-100. After washing with PBS, cells were stained with antibodies as follows: VE-cadherin ([…], Transduction Labs, San Diego, Calif.; 1 μg/mL, Santa Cruz Biotechnology, Inc., Santa Cruz, Calif.), α-catenin ([…], Transduction Labs), β-catenin (1.25 μg/mL, Transduction Labs; 0.4 μg/mL, Santa Cruz), γ-catenin ([…], Transduction Labs). The primary antibody staining was visualized with FITC-conjugated goat anti-rabbit or TRITC conjugated sheep anti-mouse (1:1000, Cappel, now owned by ICN, Costa Mesa, Calif.) for 30 minutes at room temperature, and imaged on a Zeiss Axiovert 100TV fluorescence microscope. […]

[2] = system: HUVEC; assay: HUVEC morphogenesis on MATRIGEL (in vitro angiogenesis, tubular length); conditions: for HUVEC morphogenesis on MATRIGEL (tubular length): 12-18 hours, SPM and C1P 1 μM
Protocol: FIG. 42 is microscope images showing morphogenesis of HUVEC cells plated on Matrigel. HUVEC cells were transduced with 50 MOI of indicated viruses; a,b=none, c=β-gal, d=wild-type EDG-1, e=T236AEDG-1, f=T236AEDG-1+wild-type Akt. Total viral load in c-f is normalized. In vitro angiogenesis assay on Matrigel was conducted in the presence (b to f) or not (a) of 100 nM S1P. The numbers are mean±s.e.m of total tubular length per microscopic field (n=2). Scale bar=170 μm.
To investigate SPP induction of angiogenesis, 200 μL aliquots of thawed MATRIGEL were polymerized in 24-well tissue culture plates. HUVEC were trypsinized, resuspended in plain M199 medium containing soybean trypsin inhibitor (10 mg/mL, Sigma Chemical Co., St. Louis, Mo.). Following centrifugation (250 g; 5 minutes), cells were resuspended in plain M199 supplemented with 2% CFBS at a density of 1.5×10^5 cells/mL. 200 μL of cell suspension were seeded on these gels in the presence or absence of SPP (Biomol), for 12-18 hours. Cells were rinsed two times with phosphate buffered saline (PBS), and then fixed with 4% formaldehyde. Results were recorded photographically using a Zeiss Axiovert 100TV microscope equipped with a 5× objective. Five random fields of each well were photographed, and total tubular length was quantified by image analysis (Kinsella, J. et al., Experimental Cell Research 199: 56-62 (1992); Gamble J., et al., J. Cell Biol. 121: 931-943 (1993)).
Scale bar represents 52 microns. These quantitative data are the mean±standard deviation of duplicate determinations from a representative experiment which was repeated at least three times. SPP concentrations (in μM) are indicated in parentheses. For SPP +PTx, HUVEC were pretreated with PTx (200 ng/mL) for 2 hours, trypsinized, plated onto MATRIGEL, then stimulated with 500 nM SPP in the presence of PTx (20 ng/mL) for 16-18 hours. For SPP+C3, HUVEC were pretreated with C3 exoenzyme (10 μg/mL) for 48 hours, trypsinized, plated onto MATRIGEL, stimulated with 500 nM SPP together with the same concentration of C3 exotoxin. SPM, sphingomyelin (1 μM). For C1P, C8-ceramide-1-phosphate (1 μM). The maximal effects achieved by 1 μM SPP was indistinguishable from the positive control medium which contained FBS.
In these experiments, HUVEC were plated onto MATRIGEL in the presence of the same amount of corresponding antibodies without or with 500 nM SPP. 16 hours later, total length of HUVEC networks formed on MATRIGEL was quantified.

[3] = system: HUVEC; assay: C2-Ceramide-induced apoptosis of HUVEC (DNA fragmentation); conditions: pretreatment 2 hours; PD98059 10 μM
Protocol: The ability of SPP to protect endothelial cells from apoptosis was investigated. In these experiments, HUVEC were treated with 1 μM C2-Ceramide for 12 hours and apoptosis was measured in the following manner: HUVEC were plated onto coverslips and allowed to grow for 2 days. Cells were washed three times with medium M199, and treated with 1 μM C2-Ceramide (Biomol) for 12 hours in the presence or absence of SPP. Subsequently, cells were fixed with methanol at −20° C. for 5 minutes, air dried, and stained with Hoechst 33258 dye (0.5 μg/mL for 5 minutes; Sigma Chemical Co., St. Louis, Mo.). The apoptotic nuclei were identified with the aid of a Zeiss Axiovert 100TB fluorescence microscope. For quantification, HUVEC were labeled with ^3Hmethyl-thymidine (5 μCi/mL, NEN DuPont) for 24 hours. Following three washes with medium M199, cells were treated with C2-Ceramide as above. 12 hours later, cells were extracted with lysis buffer (5 mM tris, pH 7.4, 2 mM EDTA, 0.5% TX-100) at 4° C. for 20 minutes. After centrifugation (15,000 g, 20 minutes), the radioactivity present in the supernatant and sediment was measured by liquid scintillation counting. The percentage of DNA fragmentation was determined as ((supernatant cpm)/(supernatant cpm+sediment cpm))×100%.
SPP+PTx and SPP+PD98059 (10 μM), respectively, for 2 hours prior to the addition of C2-Ceramide (1 μM) and SPP (10 to 500 nM). Data are mean±standard deviation of triplicate determinations from a representative experiment which was repeated two times. […] A similar effect was also seen when growth factor withdrawal, and 15-deoxy Δ^12,14 prostaglandin J2 were used as apoptotic stimuli (data not shown). […] Therefore SPP induced endothelial cell survival requires the Gi/ERK signaling pathway.

[4] = system: ERK-2; assay: ERK-2 immune complex kinase assay in HUVEC; conditions: PTx 200 ng/mL or PD98059 10 μM, 2 hours pretreatment
Protocol: As a second functional assay, ERK-2 kinase activity was measured in response to SPP treatment. For these experiments, endothelial cells were starved for 19 hours, and then stimulated with SPP for 10 minutes. Cells were then lysed, and ERK-2 kinase activity was measured by an immune complex kinase assay using myelin basic protein (MBP) as substrate. Some cells were pretreated with pertussis toxin (PTx) at 200 ng/mL, or PD98059 at 10 μM for 2 hours prior to stimulation.

[5] = system: HUVEC; assay: SPP-induced intracellular calcium in HUVEC (Indo-1 fluorescence); conditions: PTx 500 ng/mL pretreatment 16 hours
Protocol: Functional assays were used to test for the presence of Gi-coupled and Gq-coupled SPP receptors in HUVEC. First, intracellular calcium levels were measured in response to SPP. For these experiments, cells were grown on 100-mm tissue culture dishes and loaded with the fluorescent calcium-sensitive dye, Indo-1 acetoxymethyl ester (Indo-1/AM, 5 μg/mL; Molecular Probes, Inc., Eugene, Oreg.), for 30 min at 37° C. Cells were then washed with medium M199, briefly trypsinized (0.05% porcine trypsin/0.02% EDTA in HBSS (JRH Biosciences, Lenexa, Kans.), and the trypsin activity was immediately neutralized with soybean trypsin inhibitor (5 μg/mL, Sigma Chemical Co., St. Louis, Mo.). Following centrifugation (250 g×5 min), cells were resuspended in M199 medium to a density of 2.7×10^5 cells/mL. Cells were then stimulated with different doses of SPP. Some cells were pretreated with the Gi inhibitor pertussis toxin (PTx, 500 ng-/mL) for 16 hours. Calcium ion concentration was then quantified by measuring changes in indo-1 fluorescence in 2 mL of cell suspension by a Hitachi F-2000 fluorescence Spectrophotometer with constant stirring. Fluorescence emission was monitored at 400 and 475 nm with excitation at 352 nm. [Ca^+2]1 was calculated as described in Volpi and Berlin, J. Cell Biol., Vol. 107, 2533-39 (1988).

Compound	inhibition of the cytoprotective effect of SPP [3]	inhibition of SPP-induced ERK activity [4]	VE-cadherin, α-, β- and γ-catenin localization at cell-cell junctions [1]	HUVEC morphogenesis on MATRIGEL (tubular length) [2]	also measured
pertussis toxin	completely inhibited	inhibited completely			inhibition of SPP-induced β-catenin translocation ([1]; HUVEC, SPP treatment): did not inhibit; inhibition of SPP-induced morphogenesis ([2]; 500 nM SPP, MATRIGEL): potently inhibited; inhibition of SPP-induced calcium response [5]: approximately 90%
CCCCCCCCCCCCC/C=C/[C@@H](O)[C@H](COP(=O)(O)O)NC(=O)CCCCCCC [ceramide-1-phosphate, C8-ceramide-1-phosphate]			had no effect	inactive	
COc1cccc(-c2cc(=O)c3ccccc3o2)c1N [PD98059]	completely inhibited	inhibited completely			
CCCCCCCCCCCCC/C=C/[C@@H](O)[C@@H](N)CO [sphingosine]			had no effect		
sphingomyelin			had no effect	inactive	
ceramide			had no effect		
